Measurements: patent publication US9884813B1, “Pharmaceutically acceptable salts of B-guanidinopropionic acid with improved properties and uses thereof” (Rgenix, Inc., priority 2017, dated 2018)
Entries after “also recorded” stand apart in the source; their conditions may differ. Read-outs that look alike come from different tables or passages of the source.

Columns and labels:
Type in all cases: physicochemical
[1] = Solid form stability under stressed conditions (wet, dry, high humidity) by XRPD; settings: for Dry_XRPD pattern: dry (45° C. under vacuum); for Humid_XRPD pattern: high humidity (RH >95%); for Wet_XRPD pattern: wet
Protocol: The solid form stability of each salt was studied by XRPD under stressed conditions: wet, dry (45° C. under vacuum) and high humidity (RH >95%).

[2] = Solid form stability of salts in different solvents (slurry, XRPD); settings: 48 hours, room temperature
Protocol: Three salts were studied for solid form stability in water (disproportionation test), methanol, acetonitrile, and acetone:water (9:1) for 48 hours at room temperature.

[3] = Dynamic vapor sorption (DVS) with XRPD of the post-DVS sample; settings: for solid form by XRPD after the DVS experiment: post DVS sample
Protocol: Samples were analyzed using an Aquadyne DVS-2 gravimetric water sorption analyzer. The relative humidity was adjusted between 2-95% and the weight of the sample was continuously monitored and recorded.
[…]: β-GPA maleate (1:1) Form II, β-GPA fumarate (1:1), β-GPA maleate (2:1), β-GPA succinate (2:1) and β-GPA oxalate (1:1) were analyzed by DVS experiment followed by XRPD analysis of the sample at the end of the experiment.
Sample 2162-64-1 was analyzed by DVS in triplicate and the post DVS samples were characterized by XRPD to identify the form at the end of the experiment.

[4] = Solid form stability at 40° C. and 75% humidity; settings: 40° C. and 75% RH for seven days
Protocol: Solid form stability studies of β-GPA fumarate, succinate, and oxalate were carried out at 40° C. and 75% RH for seven days. Around 30 mg of the salts were placed in 4 mL vials which were placed in a saturated solution of sodium chloride (2 mL) with lids closed at 40° C. […]

[5] = Flowability measurement using Hanson Flodex unit; settings: summary of density and Flodex measurements
Excerpt: Method: A cylindrical vessel is secured to the stand and above that a funnel is also secured such that the bottom of the funnel is close to the vessel. A powder load of ≈50-60 g is then poured through the funnel into the middle of the cylinder. The lever device is pulled to open the hole in the disk quickly and without vibration. If a powder slowly flows through the small-diameter holes, leaving a cavity shaped like an upside-down, truncated cone, the test is considered positive. If a powder flocculates in bulk and falls abruptly, forming a cylindrical cavity, the test is considered negative. […] If the experiment is negative, the powder is tested again with a disk having a larger hole.

[6] = water (disproportionation test)

Compound	stability in dry conditions [1]	stability under high humidity conditions [1]	Dry_XRPD pattern [1]	Humid_XRPD pattern [1]	Wet_XRPD pattern [1]	further results
CCS(=O)(=O)O.N=C(N)NCCC(=O)O [ethanesulfonic acid salt]	stable	deliquesced	–	–	–	–
N=C(N)NCCC(=O)O.O=C(O)/C=C/C(=O)O [β-GPA fumarate (1:1)]	stable	stable	Pattern 7A	Pattern 7A	Pattern 7A	XRPD pattern after slurry ([2]; acetone:water (9:1)): retain their XRPD pattern; XRPD pattern after slurry ([2]; acetonitrile): retain their XRPD pattern; XRPD pattern after slurry ([2]; methanol): retain their XRPD pattern; XRPD pattern after slurry ([2]; water (disproportionation test), listed as 1:1 β-GPA fumarate): retained their XRPD pattern; moisture uptake during the DVS experiment ([3]; listed as 1:1 β-GPA fumarate): < 1%; solid form by XRPD after the DVS experiment ([3]; listed as 1:1 fumarate salt): no form change; solid form by XRPD after the DVS experiment ([3]; listed as 1:1 β-GPA fumarate): presence of β-GPA peaks along with Pattern 7A; solid form stability (XRPD) ([4]; listed as 1:1 fumarate salt): stable
N=C(N)NCCC(=O)O.O=C(O)/C=C/C(=O)O [β-GPA fumarate]	–	–	–	–	–	XRPD pattern after slurry [2, 6]: retained their XRPD patterns; solid form by XRPD after the DVS experiment [3]: retained their XRPD; also recorded: presence of two peaks from the β-GPA; solid form stability (XRPD) [4]: retained their original XRPD pattern; also recorded: stable; flow character from the experimental data [5]: excellent
Cl.NC(N)=NCCC(=O)O [β-GPA hydrochloride]	stable	deliquesced	Pattern 1A	Deliquesce	Pattern 1A	–
N=C(N)NCCC(=O)O.O=C(O)C[C@H](O)C(=O)O [β-GPA malate (1:1)]	stable	deliquesced	Pattern 12A	Deliquesce	Pattern 12A	–
N=C(N)NCCC(=O)O.O=C(O)/C=C\C(=O)O [β-GPA maleate (1:1) Form II]	–	–	Pattern 6D	Pattern 6D	Pattern 6D	XRPD pattern after slurry ([2]; acetone:water (9:1)): matched with the original pattern of the salt (Pattern 6D) along with some additional peaks; XRPD pattern after slurry ([2]; acetonitrile): retain its XRPD pattern; XRPD pattern after slurry ([2]; methanol): retain its XRPD pattern; XRPD pattern after slurry [2, 6]: retained their XRPD patterns; moisture uptake during the DVS experiment [3]: ~25%; moisture uptake ([3]; at around 95% RH): around 25%; solid form by XRPD after the DVS experiment [3]: no form change
N=C(N)NCCC(=O)O.O=C(O)/C=C\C(=O)O [β-GPA maleate (1:1) Form I]	stable	stable	Pattern 6A	Pattern 6A	Pattern 6A	–
N=C(N)NCCC(=O)O.N=C(N)NCCC(=O)O.O=C(O)/C=C\C(=O)O [β-GPA maleate (2:1)]	–	–	Pattern 6C	Pattern 6B	Pattern 6B	–
CS(=O)(=O)O.N=C(N)NCCC(=O)O [β-GPA methanesulfonate]	stable	deliquesced	Pattern 19A	Deliquesce	Pattern 19A	–
N=C(N)NCCC(=O)O.O=P(O)(O)O [β-GPA phosphate]	stable	deliquesced	Pattern 4A	Deliquesce	Pattern 4A	–
